{"source": "patent US8044022B2", "about": "“Hyaluronic acid binding peptides enhance host defense against pathogenic bacteria” (priority 2005, dated 2011)", "key": {"S. aureus strain PS80": {"system": "S. aureus strain PS80", "test": "Mouse model of S. aureus surgical wound infection", "format": "in vivo, C57BL6 mice", "method": "Bacterial strains. S. aureus strain PS80 (serotype 8) was obtained from the American Type Culture collection (#27700) and is a potent inducer of intraabdominal abscess formation. S. aureus COL is a methicillin resistant strain that produces a serotype 5 capsule. Staphylococci were cultivated for 24 h at 37° C. on Columbia agar (Difco Laboratories, Detroit, Mich.) supplemented with 2% NaCl.\nMouse model of S. aureus wound infection. Mice (C57BL6, male, 6-8 wk old) were obtained from Jackson Laboratories (Bar Harbor, Me.). Groups of mice (N=4/group/experiment) were anesthetized with 100 mg/kg ketamine and 10 mg/kg xylazine, their right thighs were shaved, and the surgical area was disinfected with iodine and 70% ethanol. An incision was made in the skin to expose the thigh muscle, and a 1-cm incision was made with a scalpel into the thigh muscle to the depth of the bone. The muscle was then closed with one 4-0 silk suture, and 10 μl of a S. aureus suspension ranging in dose from 10^2 to 10^4 CFU was introduced into the incision under the suture. The skin was closed with four additional Prolene sutures. The mice were euthanized at 3 days post-surgery. The wounded muscle tissue was excised, weighed (˜0.08 g), and homogenized in 1 ml of tryptic soy broth. Serial dilutions of the homogenates were plated in duplicate and results were expressed as CFU/g tissue. Peptides were administered to animals in two ways. For most experiments, HABPs were solubilized in PBS and administered with a pipet into the wound in a 10 μl volume following challenge with bacteria. A 100 μg dose was used for most experiments. For therapeutic studies, peptide was administered via a 1 ml tuberculin syringe fitted with a 25 gauge needle in a 0.25 ml volume injected into the thigh muscle containing the wound distal from the incision site.\nGross pathology and histologic analysis of host response. […] Histological examination of these wounds confirmed these findings. Muscle tissue was harvested from mice at designated intervals post-surgery, fixed in 10% buffered formalin, and mounted in paraffin; 5 to 6-μm sections were cut and stained with hematoxylin and eosin for microscopic examination. […] The cellular infiltrate was primarily comprised of PMNs and fibrin.\nStatistical analyses. All animal experiments were performed at least two times and the data pooled. Comparison of S. aureus CFU/g tissue was made by the Welch modification of the unpaired Student t test (InStat, GraphPad Software, San Diego, Calif.)."}, "contact hypersensitivity": {"system": "contact hypersensitivity", "settings": "mice; cited from earlier work"}, "S. aureus PS80": {"system": "S. aureus PS80", "test": "Modified NCCLS macrodilution broth method, antimicrobial activity", "format": "cell-based, Staphylococcus aureus", "settings": "1, 10 and 100 ug/mL; quantitative cultures at 4, 8, 24 h; vs controls without HABPs", "method": "The antimicrobial activity of HABP35 and HABP53 was determined using a modified National Committee for Clinical Laboratory Standards (NCCLS) macrodilution broth method. S. aureus PS80 was grown overnight on tryptic soy agar plates containing 5% sheep blood. Colonies were suspended in sterile saline and dilutions made to achieve a final concentration of 5×10^5 CFU/ml in each tube containing 5 ml of Mueller-Hinton and BP35 or 53. The HABPs were tested at 1, 10, and 100 ug/mL concentrations. Once inoculated, the tubes were incubated in ambient air at 37° C. and bacterial concentration determined at 4, 8, and 24 hours. Modification of testing parameters included the 10 fold dilution of the HABPs and the determination of bacterial counts at 4, 8 and 24 hours rather than the visual determination of growth or inhibition."}, "leukocyte adhesion to HA": {"system": "leukocyte adhesion to HA", "settings": "cited from earlier work"}}, "data": [{"sequence": "GAHWQFNALTVRGGGS [HABP52]", "values": [{"measurement": "bacterial burden at the wound site compared with PBS", "setting": "S. aureus strain PS80; 100 μg into wound at time of challenge with 10^2 CFU, 3 days later", "value": "significant decrease"}, {"measurement": "log reduction in bacterial numbers vs PBS", "setting": "S. aureus strain PS80; challenge with 10^3 CFU, 3 days", "value": "~3", "unit": "log"}, {"measurement": "contact hypersensitivity responses", "setting": "contact hypersensitivity", "value": "inhibits contact hypersensitivity responses"}, {"measurement": "growth of S. aureus", "setting": "S. aureus PS80", "value": "not inhibited"}, {"measurement": "leukocyte adhesion to HA", "setting": "leukocyte adhesion to HA", "value": "inhibit leukocyte adhesion to HA"}]}]}
